Conditions: Liquid; for viscosity: Capillary tube (Ostwald / Ubbelohde) method; for mass density: Vibrating tube method

CCCCCCCO [heptan-1-ol]
Conditions	mass density, 298.15 K [kg/m3]	mass density, 323.15 K [kg/m3]	viscosity, 298.15 K [mPa·s]	viscosity, 323.15 K [mPa·s]
2002 kPa	819.81	–	5.986	–
2006 kPa	–	802.09	–	2.779
3999 kPa	821.2	–	6.11	–
4003 kPa	–	803.5	–	2.832
6000 kPa	–	804.98	–	2.887
6006 kPa	822.3	–	6.233	–
7993 kPa	–	806.39	–	2.942
8000 kPa	823.7	–	6.359	–
10000 kPa	–	807.79	–	3
10002 kPa	824.8	–	6.487	–
12997 kPa	826.41	–	6.683	–
13006 kPa	–	809.85	–	3.085
15999 kPa	828.31	–	6.883	–
16007 kPa	–	811.88	–	3.173
18995 kPa	831.3	–	7.086	–
19004 kPa	–	813.79	–	3.263
22001 kPa	833.2	–	7.297	–
22008 kPa	–	815.68	–	3.354
25000 kPa	835.1	–	7.511	–
25007 kPa	–	817.57	–	3.446

CCCCCCC [heptane]
Conditions	mass density [kg/m3]	viscosity [mPa·s]
293.25 K, 2103 kPa	685.58	0.4229
293.25 K, 3666 kPa	687.27	0.4317
293.25 K, 6195 kPa	689.52	0.4449
293.25 K, 10385 kPa	693.22	0.4681
293.25 K, 14421 kPa	696.48	0.4907
293.25 K, 17447 kPa	698.88	0.5062
293.25 K, 20472 kPa	701.01	0.5237
293.25 K, 23543 kPa	703.3	0.5407
293.25 K, 26611 kPa	705.5	0.5567
313.07 K, 11204 kPa	678.28	0.3782
313.07 K, 17225 kPa	683.61	0.4049
313.07 K, 20247 kPa	686.13	0.4185
313.07 K, 29805 kPa	693.98	0.4596
313.08 K, 2050 kPa	669.15	0.3388
313.08 K, 4083 kPa	671.15	0.3472
313.08 K, 6733 kPa	673.77	0.359
313.08 K, 14195 kPa	681.03	0.3912
313.08 K, 23266 kPa	688.54	0.4314
313.08 K, 26286 kPa	691.26	0.4449
332.77 K, 4091 kPa	654.57	0.2886
332.78 K, 2084 kPa	652.25	0.2805
332.78 K, 7031 kPa	658.26	0.2994
332.78 K, 11151 kPa	662.67	0.3143
332.78 K, 14177 kPa	665.56	0.3261
332.78 K, 17172 kPa	668.79	0.3367
332.78 K, 20193 kPa	671.47	0.3472
332.78 K, 23214 kPa	674.57	0.3581
332.78 K, 26231 kPa	677.28	0.3689
352.39 K, 2184 kPa	635.33	0.2346
352.39 K, 4102 kPa	637.96	0.2413
352.39 K, 11159 kPa	646.85	0.2635
352.39 K, 14169 kPa	650.4	0.2732
352.39 K, 17199 kPa	653.84	0.283
352.39 K, 29758 kPa	666.6	0.3207
352.4 K, 7146 kPa	641.83	0.2514
352.4 K, 20204 kPa	657.05	0.2922
352.4 K, 23212 kPa	660.04	0.3015
352.4 K, 26228 kPa	663.06	0.3106

O [water]
Conditions	mass density [kg/m3]	viscosity [mPa·s]
293.36 K, 2061 kPa	999.51	0.9917
293.36 K, 4085 kPa	999.98	0.9931
293.37 K, 7118 kPa	1001.28	0.9928
293.37 K, 26278 kPa	1010.35	0.9863
293.38 K, 11158 kPa	1003.59	0.9898
293.38 K, 17210 kPa	1006.18	0.9897
293.38 K, 20234 kPa	1006.98	0.988
293.38 K, 23255 kPa	1008.25	0.9883
313.08 K, 4076 kPa	994.07	0.6535
313.08 K, 7109 kPa	995.47	0.6538
313.08 K, 11150 kPa	996.66	0.6546
313.08 K, 14177 kPa	997.99	0.655
313.08 K, 17203 kPa	999.9	0.6552
313.08 K, 20228 kPa	1000.99	0.6557
313.08 K, 23250 kPa	1001.91	0.6559
313.08 K, 26271 kPa	1003.18	0.6562
313.08 K, 29788 kPa	1004.77	0.6586
313.09 K, 2053 kPa	992.98	0.6538
332.85 K, 14173 kPa	989.5	0.4707
332.85 K, 17195 kPa	990.83	0.4712
332.85 K, 20214 kPa	991.48	0.4725
332.85 K, 26252 kPa	994.06	0.4751
332.86 K, 4081 kPa	984.88	0.4685
332.86 K, 7113 kPa	985.99	0.4685
332.86 K, 11150 kPa	988.22	0.47
352.57 K, 4073 kPa	973.51	0.3574
352.58 K, 2044 kPa	972.64	0.3565
352.58 K, 7107 kPa	975.4	0.3582
352.59 K, 11142 kPa	977	0.3592
352.59 K, 14161 kPa	977.85	0.36
352.6 K, 17181 kPa	979.13	0.361
352.6 K, 20194 kPa	980.96	0.3617
352.6 K, 23203 kPa	982.36	0.3627
352.6 K, 26211 kPa	983.69	0.3638
352.6 K, 29715 kPa	984.92	0.3648

CCCCCO [pentan-1-ol]
Conditions	mass density, 298.15 K [kg/m3]	mass density, 323.15 K [kg/m3]	viscosity, 298.15 K [mPa·s]	viscosity, 323.15 K [mPa·s]
1999 kPa	–	794.19	–	1.835
2003 kPa	811.93	–	3.593	–
3999 kPa	813.3	–	3.661	–
4001 kPa	–	795.77	–	1.868
6001 kPa	–	797.32	–	1.903
6003 kPa	814.64	–	3.731	–
8000 kPa	–	798.83	–	1.937
8005 kPa	815.96	–	3.799	–
9998 kPa	–	800.31	–	1.972
10001 kPa	817.26	–	3.867	–
12999 kPa	–	802.47	–	2.025
13000 kPa	819.15	–	3.972	–
16001 kPa	–	804.56	–	2.078
16004 kPa	821	–	4.08	–
19002 kPa	–	806.59	–	2.134
19006 kPa	822.8	–	4.19	–
22000 kPa	824.56	–	4.301	–
22001 kPa	–	808.56	–	2.19
24998 kPa	826.27	–	4.41	–
25002 kPa	–	810.48	–	2.245

CCO [ethanol]
Conditions	mass density [kg/m3]	viscosity [mPa·s]
298.15 K, 1022 kPa	785.87	1.086
298.15 K, 3922 kPa	788.69	1.112
298.15 K, 8793 kPa	792.53	1.148
298.15 K, 12491 kPa	795.7	1.175
298.15 K, 17711 kPa	799.91	1.213
298.15 K, 21982 kPa	802.87	1.244
298.15 K, 24097 kPa	804.5	1.26
298.15 K, 26940 kPa	806.36	1.28
298.15 K, 29139 kPa	807.89	1.296
323.15 K, 3237 kPa	766.361	0.711
323.15 K, 9248 kPa	772.358	0.7435
323.15 K, 12839 kPa	775.758	0.7616
323.15 K, 18790 kPa	780.78	0.7928
323.15 K, 23256 kPa	784.532	0.8153
323.15 K, 25042 kPa	786.147	0.8236
323.15 K, 27936 kPa	788.458	0.8367
323.16 K, 626 kPa	763.659	0.6978
323.16 K, 15104 kPa	777.664	0.7732
333.27 K, 16623 kPa	770.196	0.6592
333.28 K, 909 kPa	754.25	0.5872
333.28 K, 1891 kPa	756.361	0.5916
333.28 K, 5093 kPa	758.805	0.6065
333.28 K, 9067 kPa	762.841	0.6251
333.28 K, 12887 kPa	766.568	0.6421
333.28 K, 22108 kPa	775.145	0.684
333.28 K, 25690 kPa	777.944	0.6985
333.28 K, 29272 kPa	780.933	0.7133

CCCCCC [hexane]
Conditions	mass density [kg/m3]	viscosity [mPa·s]
293.22 K, 1999 kPa	661.4	0.3196
293.22 K, 3994 kPa	663.53	0.3287
293.22 K, 5999 kPa	665.43	0.339
293.22 K, 8007 kPa	667.57	0.3483
293.22 K, 22004 kPa	680.38	0.4135
293.22 K, 28004 kPa	685.01	0.4427
293.23 K, 10003 kPa	669.41	0.3576
293.23 K, 13000 kPa	672.26	0.3713
293.23 K, 16006 kPa	675.2	0.3851
293.23 K, 19000 kPa	677.83	0.399
293.23 K, 25002 kPa	682.87	0.428
293.23 K, 30001 kPa	686.72	0.4521
313.1 K, 2005 kPa	643.6	0.2614
313.1 K, 3997 kPa	645.97	0.2702
313.1 K, 5999 kPa	648.24	0.2774
313.1 K, 8000 kPa	650.44	0.2853
313.1 K, 9999 kPa	652.57	0.2934
313.1 K, 12997 kPa	655.73	0.305
313.1 K, 15999 kPa	659	0.3165
313.1 K, 18003 kPa	661.04	0.3243
313.1 K, 21999 kPa	664.77	0.3399
313.1 K, 24998 kPa	667.58	0.3504
313.1 K, 28001 kPa	670.32	0.3631
313.1 K, 30004 kPa	672.03	0.37
333 K, 2004 kPa	624.85	0.2192
333 K, 4002 kPa	627.59	0.226
333 K, 6003 kPa	630.29	0.2328
333 K, 8005 kPa	632.82	0.2396
333 K, 10008 kPa	635.78	0.2467
333 K, 12998 kPa	639.36	0.2565
333 K, 16002 kPa	642.74	0.2667
333 K, 19000 kPa	646.04	0.2766
333 K, 21993 kPa	649.32	0.2863
333 K, 25001 kPa	652.41	0.296
333 K, 28000 kPa	655.31	0.3058
333 K, 30005 kPa	657.29	0.3128
353.14 K, 4001 kPa	608.43	0.1911
353.14 K, 8003 kPa	614.97	0.203
353.14 K, 15997 kPa	625.92	0.2264
353.14 K, 21998 kPa	633.46	0.2438
353.15 K, 2003 kPa	605.15	0.1848
353.15 K, 5997 kPa	611.57	0.197
353.15 K, 10009 kPa	618	0.2091
353.15 K, 13000 kPa	622.08	0.2179
353.15 K, 19000 kPa	629.87	0.2352

Source: the NIST ThermoML archive (doi:10.1021/acs.jced.5b00152)
